Two compounds from paper PMC10816808, “Enhancement of the Antitumor and Antimetastatic Effect of Topotecan and Normalization of Blood Counts in Mice with Lewis Carcinoma by Tdp1 Inhibitors—New Usnic Acid Derivatives” (International Journal of Molecular Sciences, 2024) can be followed below.

Type in all cases: cell-based
Data set [1] in a line: MTT cytotoxicity test, A-549. The note with it: human, A-549 cells (lung cancer), read-out: semitoxic concentration (CC50), A-549. An excerpt:
(§1) Compounds 6 and 8 with a bromophenol residue in the enamine fragment have a weak or moderate effect on cell survival (Table 1 and Supplementary Figure S1).
(§2) Cytotoxicity of the compounds against human tumor cell lines: HeLa (cervical cancer), HCT-116 (colorectal cancer), A-549 (lung cancer), MCF-7 (breast cancer), T98G (glioblastoma), HepG2 (hepatocarcinoma), and nontumor cell lines: MRC-5 (lung fibroblasts) and HEK293A (human embryonic kidney) was examined using the MTT test. HCT-116 and MRC-5 cell lines were provided by the Cell Culture Bank of the State Research Center for Virology and Biotechnology Vector, Novosibirsk, Russia. A-549, MCF-7, and T98G cell lines were obtained from the Russian Cell Culture Collection (RCCC) Institute of Cytology RAS (St. Petersburg, Russia). HEK293A cells were purchased (ThermoFisher Scientific, Waltham, MA, USA).
(§3) The cell culture medium DMEM medium (Invitrogen, Carlsbad, CA, USA) contained 10% fetal bovine serum (FBS) (Invitrogen), penicillin (100 units/mL), and streptomycin (100 µg/mL). Cells were seeded into 96-well plates at 5000 cells per well and grown at 37 °C and 5% CO2 in a humid atmosphere. At 30–50% confluence, the tested compounds were added to the medium to a final DMSO content of 1%. Control wells contained 1% DMSO. To determine the cytotoxicity of Tdp1 inhibitors, the cells were treated with compounds with concentrations ranging from 1 to 100 µM for 72 h at 37 °C […]. All measurements were repeated a minimum of twice.

The nature of data set [2]: MTT cytotoxicity test, HCT-116. The note with it: human, HCT-116 cells (colorectal cancer), read-out: semitoxic concentration (CC50), HCT-116.
Source text: as §1, §2, §3
A general note: Tetrazolium assays rely on reduction of a dye to a coloured formazan, in cell work by metabolically active cells.

Data set [3] in a line: MTT cytotoxicity test, HEK293A. To be noted: human, HEK293A cells (embryonic kidney, nontumor), read-out: semitoxic concentration (CC50), HEK293A.
Source text: as §1, §2, §3

Data set [4] is described as follows: MTT cytotoxicity test, HeLa. The note with it: human, HeLa cells (cervical cancer), read-out: semitoxic concentration (CC50), HeLa.
Source text: as §1, §2, §3

The nature of data set [5]: MTT cytotoxicity test, MCF-7. To be noted: human, MCF-7 cells (breast cancer), read-out: semitoxic concentration (CC50), MCF-7.
Source text: as §1, §2, §3

Data set [6] can be described thus: MTT cytotoxicity test, T98G. To be noted: human, T98G cells (glioblastoma), read-out: semitoxic concentration (CC50), T98G.
Source text: as §1, §2, §3

For data set [7], the system named is various types of cultured cells. Briefly: MTT test, panel of cultured cell lines. The note with it: at concentrations up to 100 μM; wide panel of tumor and non-cancerous cell lines.
Source text: as §1, §2
The cell culture medium DMEM medium (Invitrogen, Carlsbad, CA, USA) contained 10% fetal bovine serum (FBS) (Invitrogen), penicillin (100 units/mL), and streptomycin (100 µg/mL). Cells were seeded into 96-well plates at 5000 cells per well and grown at 37 °C and 5% CO2 in a humid atmosphere. At 30–50% confluence, the tested compounds were added to the medium to a final DMSO content of 1%. Control wells contained 1% DMSO. […]

A short description of data set [8]: Topotecan cytotoxicity with Tdp1 inhibitor (MTT), MRC-5. The note with it: human, MRC-5 cells (lung fibroblasts, nontumor); topotecan alone or in the presence of 5 µM Tdp1 inhibitor.
Source text: (§4) Tdp1 inhibitors combined with topotecan dramatically reduce tumor metastasis. Usnic acid derivatives of the enamine and hydrazonothiazole series turned out to be promising sensitizers of the action of topotecan both on cultured cell lines and on mouse tumors in vivo [30, 32]. We studied the ability of the usnic acid derivatives to sensitize the effects of topotecan on the same panel of cell lines. We used two non-cancerous cell lines MRC-5 and HEK293A, including previously obtained HEK293A Tdp1 knockout cells (for compound 7), and cancerous cell lines HeLa, HCT-116, A-549, MCF-7, T98G. We found the most pronounced and reliable sensitizing effect on cancerous cell lines HeLa, HCT-116, A-549, MCF-7 only for compound 7 (Table 2 and Figures S2 and S3).
as §2, with “HEK293A cells were purchased (ThermoFisher Scientific, Waltham, MA, USA).” left out

Another data set deals with HeLa. In words: Topotecan cytotoxicity with Tdp1 inhibitor (MTT), HeLa. The note with it: Homo sapiens, topotecan alone or in the presence of 5 µM Tdp1 inhibitor.
Source text: as §4
as §2, with “HEK293A cells were purchased (ThermoFisher Scientific, Waltham, MA, USA).” left out

A short description of data set [9]: Topotecan cytotoxicity with Tdp1 inhibitor (MTT), HEK293A. To be noted: human, HEK293A cells (embryonic kidney, nontumor); topotecan alone or in the presence of 5 µM Tdp1 inhibitor.
Source text: as §4
as §2, with “HEK293A cells were purchased (ThermoFisher Scientific, Waltham, MA, USA).” left out

Another data set has as its system HCT-116. Briefly: Topotecan cytotoxicity with Tdp1 inhibitor (MTT), HCT-116. To be noted: Homo sapiens, topotecan alone or in the presence of 5 µM Tdp1 inhibitor.
Source text: as §4
as §2, with “HEK293A cells were purchased (ThermoFisher Scientific, Waltham, MA, USA).” left out

For another data set, the system named is A-549. In words: Topotecan cytotoxicity with Tdp1 inhibitor (MTT), A-549. To be noted: Homo sapiens, A549; topotecan alone or in the presence of 5 µM Tdp1 inhibitor.
Source text: as §4
as §2, with “HEK293A cells were purchased (ThermoFisher Scientific, Waltham, MA, USA).” left out

The next data set concerns MCF-7. Briefly: Topotecan cytotoxicity with Tdp1 inhibitor (MTT), MCF-7. The note with it: Homo sapiens, MCF7; topotecan alone or in the presence of 5 µM Tdp1 inhibitor.
Source text: as §4
as §2, with “HEK293A cells were purchased (ThermoFisher Scientific, Waltham, MA, USA).” left out

The subject of another data set is T98G. In words: Topotecan cytotoxicity with Tdp1 inhibitor (MTT), T98G. The note with it: Homo sapiens, topotecan alone or in the presence of 5 µM Tdp1 inhibitor.
Source text: as §4
as §2, with “HEK293A cells were purchased (ThermoFisher Scientific, Waltham, MA, USA).” left out

Regarding `C/C(NCCCc1cc(C(C)(C)C)c(O)c(C(C)(C)C)c1)=C1\C(=O)C=C2Oc3c(-c4csc(N/N=C/c5ccc(Br)cc5)n4)c(O)c(C)c(O)c3[C@@]2(C)C1=O` [Compound 7, (4E)-10-{2-[(E)-2-[(4-bromophenyl)methylidene]hydrazin-1-yl]-1,3-thiazole-4-yl}-4-(1-{[3-(3,5-di-tret-butyl-4-hydroxyhenyl)propyl]amino}ethylidene)-11,13-dihydroxy-2,12-dimethyl-8-oxatricyclo [7.4.0.02,7]trideca-1(13),6,9,11-tetraen-3,5-dione], the CC50 at 72 h in [1], in [2], in [3], in [4], in [5] and in data set [6] was over 100 µM in each case. Besides, the “living cells (metabolic activity, MTT)” value in data set [7] is on record as “more than 50%”.

As to `CC[C@@]1(O)C(=O)OCc2c1cc1n(c2=O)Cc2cc3c(CN(C)C)c(O)ccc3nc2-1` [Tpc, topotecan], the CC50 in [8] was over 10 µM; in the data set on HeLa it was 9.9 µM; in data set [9], 33 nM; in the data set with HCT-116 it was 810 nM; in the data set on A-549, 1500 nM; with MCF-7 it was 1400 nM. In the data set with T98G, the CC50 came out at 2500 nM.
